Assay [1] relates to cervical cancer cell line Hela. Description: Soft agar colony formation assay. Format: cell-based, human. From the text: (§1) Measuring the ability of cells to grow in soft agar has been popularly believed as the gold standard assay for cellular transformation in vitro. In the Soft Agar Assay, cells grow from single cells to cell colonies in a semi-solid agar solution that keeps them away from the solid surface and allows growth in an anchorage-independent way.
(§2) The anchorage-independent growth of cells is one of the hallmarks of cancer cells. Normal epithelial cells are supported by basement membranes that provide survival and proliferative signals while undergo a type of apoptosis called anoikis when lose their attachment to the extracellular matrix. Cancer cells, in contrast, evade detachment-induced apoptosis, leading to uncontrolled proliferation and metastasis. The Soft Agar Colony Formation Assay allows testing of the therapeutic efficacy of compounds against anchorage-independent 3D growth of cancer cells in vin. The assay was performed in 6-well plates with two layers of agar. For the first, 0.75% agar in DMEM medium was melted in a microwave oven and poured to form a bottom layer. Once solidified, 10-100K cells in 1 ml of DMEM containing 0.35% agar was added to form the top layer, which was later covered with 0.5 ml of DMEM. Cell culture medium was changed once every two days until colonies were ready to photograph. We test the antitumor activity of select compounds in soft agar colony formation assays. […] The suppression of growth of these three cancer cell lines in 3D culture is consistent with the potent impact of these compounds on cellular proliferation in 2D culture.

The test system of the next assay is Human Cancer Cells. As to the kind of experiment: Anchorage-independent growth in 3D culture (FIG. 3). Format: cell-based. Conditions: FIG. 3 legend, cell line not named.
Source text: as §1, §2

The test system of a further assay is NCI-H23. Description: MECP in cancer cell line. It counts as cell-based. As to conditions: Homo sapiens. In outline: (§3)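 Imaging read-out (IN-Cell 2000): mitotic index at 24 h, polyploidy/DNA content at 48 h, also 72 h. Cells in DMEM/5% FBS, 37 °C, 5% CO2; compound 1 nM–30 μM. Binned A ≤1.0 μM, B ≤10.0 μM, C ≤30.0 μM, D >30.0 μM.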
For a further assay, the system named is A549. As to the kind of experiment: MECP in cancer cell line. As to conditions: Homo sapiens. It counts as cell-based. A digest of the protocol:
as §3

Assay [2] has as its system SW480. As to the kind of experiment: MECP in cancer cell line. It counts as cell-based. Conditions: Homo sapiens. A digest of the protocol: as §3
The subject of assay [3] is SW480. As to the kind of experiment: MTT assay of cellular proliferation. It counts as cell-based. Conditions: Homo sapiens, 50% inhibition of cellular proliferation. In outline: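 Compound dosing: 1 nM to 30 μM on subconfluent (20-30%) cultures in DMEM, 5% FBS. Readout was MTT reduction over 3-4 h, formazan at A570; EC50 derived.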
For a further assay, the system named is NCI-H2170. Description: MECP in cancer cell line. It counts as cell-based, human. On the procedure: (§4) Six lung cancer cell lines (NCI-H23, NCI-H460, NCI-H596, NCI-H2170, Calu-6 and A549), two colon cancer cell lines (HCT116 and SW460), one breast cancer cell line MDA-MB-231, one gastric cancer cell line NCI-N87, one prostate cancer cell line DU145, one cervical cancer cell line Hela, and one glioblastoma cell line T98G were obtained from ATCC. The T2 HCC cell line was derived from a mouse liver cancer model initiated by a transgene of MYC. All cell lines were cultured in DMEM (Gibco, Cleveland, TN, USA) supplemented with 5% fetal bovine serum (Gibco), penicillin (100 U/mL)—streptomycin (100 μg/mL) (Gibco, Cat. No. 15140-122), 2 mM L-glutamine (Gibco, 200 mM solution, Cat. No. 25030081), and 1 mM sodium pyruvate (Gibco, 100 mM solution, Cat. No. 11360070) at 37° C. in a humidified incubator that was maintained at 5% CO2.
(§5) We have previously developed a mechanism-informed phenotypic screening assay to identify novel antimitotic agents. Equipped with a prior understanding of the versatile functions of the chromosomal passenger protein (CPP) complex in orchestrating karyokinesis and cytokinesis, the screening assay is to score for phenotypes typically seen when the CPP complex is disabled. Specifically, the parameters for a positive hit are a temporary elevation of mitotic index (MI) at 24 hours of drug treatment and an accumulation of polyploid cells at 48 hours of drug treatment, indicative of mitotic arrest and cytokinetic failure respectively. These parameters exclude compounds that elicit only a prolonged arrest of cells in mitosis, a phenotype typically provoked by spindle toxins. The screening procedure is briefly summarized here. RPEMYC^H2B-GFP cells engineered to express a Histone 2B-EGFP fusion protein were passaged as batches of 96-well plates, 18-24 hours before exposure to the chemical compounds of the present disclosure at concentrations from 1 nM to 30 μM. At 24, 48 or 72 hours after initiation of treatment, cells were analyzed for either an arrest in mitosis or a change in DNA content by GE IN-Cell Analyzer 2000. As set forth in Table 2 below, a value of greater than or equal to 1 nM and less than or equal to 1.0 μM is marked “A”; a value greater than 1.00 μM and less than or equal to 10.0 μM is marked “B”; a value greater than 10.0 μM and less than or equal to 30.0 μM is marked “C”; and a value greater than 30.0 μM is marked “D.”

In another assay the test system is Calu-6. Description: MECP in cancer cell line. It counts as cell-based, human. The method, then:
as §4, §5

Another assay deals with DU145. As to the kind of experiment: MECP in cancer cell line. Format: cell-based, human. On the procedure: as §4, §5

pEC50: −log10 of the molar value.

With `COc1cc(OC)cc(Oc2ccnc3ccccc23)c1` [Compound 7, 4-(3,5-dimethoxyphenoxy)quinoline], the “anchorage-independent growth in soft agar” value in assay [1] is listed as “effectively suppressed the anchorage-independent growth”. In addition, the “Anchorage-independent Growth of Human Cancer Cells in 3D Culture” value (“Anchorage-independent Growth … in 3D Culture” below) in the assay with Human Cancer Cells is reported as “Suppress the Anchorage-independent Growth”. For the same compound, the minimal effective concentration (in general, the lowest level tested that produced the effect sought) in the assay on NCI-H23 was 0.001 to 1 µM.
As for `COC(=O)c1cc(OC)cc(Oc2ncnc3cc(OC)c(OC)cc23)c1` [Compound 29], the figures for the minimal effective concentration in the assay with A549, with SW480 [2] and in the assay with NCI-H23 were 1 to 10 µM, 1 to 10 µM and 0.001 to 1 µM, respectively. For the same compound, in the assay with SW480 [3], the pEC50 (usually the EC50 on a negative log10 scale, so that one unit is a factor of ten) is 5.00 to 6.00. The MECP result is “A (a value of greater than or equal to 1 nM and less than or equal to 1.0 μM)” in the assay with NCI-H2170; “A (a value of greater than or equal to 1 nM and less than or equal to 1.0 μM)” in the assay on Calu-6; “B (a value greater than 1.00 M and less than or equal to 10.0 μM)” in the assay with DU145.
As for `COC(=O)c1cc(OC)cc(Oc2ncnc3cc[nH]c23)c1` [Compound 34, methyl 3-((5H-pyrrolo[3,2-d]pyrimidin-4-yl)oxy)-5-methoxybenzoate], the minimal effective concentration in the assay on A549 is 1 to 10 µM; in the assay with SW480 [2], 0.001 to 1 µM; in the assay on NCI-H23, 0.001 to 1 µM. Also, the pEC50 in the assay with SW480 [3] is 5.00 to 6.00. The MECP entry with NCI-H2170 is “A (a value of greater than or equal to 1 nM and less than or equal to 1.0 μM)”; in the assay with Calu-6, “A (a value of greater than or equal to 1 nM and less than or equal to 1.0 μM)”; with DU145 it was “A (a value of greater than or equal to 1 nM and less than or equal to 1.0 μM)”.
As to `COC(=O)c1cc(Oc2ncnc3cc[nH]c23)cc(C(=O)OC)c1` [Compound 36, dimethyl 5-((5H-pyrrolo[3,2-d]pyrimidin-4-yl)oxy)isophthalate], the minimal effective concentration with A549 lay within 1 to 10 µM; with NCI-H23 it was 0.001 to 1 µM. In [1], the “anchorage-independent growth in soft agar” value is listed as “effectively suppressed the anchorage-independent growth”. Besides, the “Anchorage-independent Growth … in 3D Culture” value in the assay with Human Cancer Cells is “Suppress the Anchorage-independent Growth”. In addition, the MECP result with NCI-H2170 is “A (a value of greater than or equal to 1 nM and less than or equal to 1.0 μM)”; with Calu-6, “A (a value of greater than or equal to 1 nM and less than or equal to 1.0 μM)”; in the assay with DU145, “A (a value of greater than or equal to 1 nM and less than or equal to 1.0 μM)”.
For `COC(=O)c1cc(OC)cc(Oc2ncnc3ccsc23)c1` [Compound 37, methyl 3-methoxy-5-(thieno[3,2-d]pyrimidin-4-yloxy)benzoate], the minimal effective concentration lay within 1 to 10 µM in the assay with A549, 0.001 to 1 µM in the assay with SW480 [2] and 0.001 to 1 µM in the assay on NCI-H23. The compound further had a pEC50 in the assay on SW480 [3] of 6.00 to 9.00. Further, the MECP entry in the assay on NCI-H2170 is “A (a value of greater than or equal to 1 nM and less than or equal to 1.0 μM)”; in the assay with Calu-6 it was “A (a value of greater than or equal to 1 nM and less than or equal to 1.0 μM)”; in the assay with DU145, “A (a value of greater than or equal to 1 nM and less than or equal to 1.0 μM)”.
Turning to `COC(=O)c1cc(Oc2ncnc3ccsc23)cc(C(=O)OC)c1` [Compound 39, dimethyl 5-(thieno[3,2-d]pyrimidin-4-yloxy)isophthalate], the minimal effective concentration was 1 to 10 µM in the assay with A549 and 0.001 to 1 µM with NCI-H23. Further, in [1], the “anchorage-independent growth in soft agar” value is recorded as “effectively suppressed the anchorage-independent growth”. For the same compound, in the assay on Human Cancer Cells, the “Anchorage-independent Growth … in 3D Culture” value is listed as “Suppress the Anchorage-independent Growth”. Also, the MECP entry with NCI-H2170 is “A (a value of greater than or equal to 1 nM and less than or equal to 1.0 μM)”; in the assay with Calu-6, “A (a value of greater than or equal to 1 nM and less than or equal to 1.0 μM)”; in the assay on DU145, “A (a value of greater than or equal to 1 nM and less than or equal to 1.0 μM)”.

Source of the values: patent publication US20240239806A1, “COMPOUNDS, COMPOSITIONS AND METHODS OF TREATING DISORDERS” (Chengdu Anticancer Bioscience, Ltd., priority 2021, published 2024).
